Assay results taken from PMC7736581, “Activation of the IRE1 RNase through remodeling of the kinase front pocket by ATP-competitive ligands” (Nature Communications, 2020).

Tests used:
Assay in all cases: biochemical
Parameters in all cases: Invitrogen kinase panel: Z'Lyte activity (ATP at Km) or LanthaScreen competitive ATP-site binding, percent inhibition
[1] = molecular target: BTK (Homo sapiens, UniProt Q06187)
[2] = molecular target: EphA7 (Homo sapiens, UniProt Q15375)
[3] = molecular target: T1, Flt3 (Homo sapiens, UniProt P36888)
T1 sequence (P36888 1-993): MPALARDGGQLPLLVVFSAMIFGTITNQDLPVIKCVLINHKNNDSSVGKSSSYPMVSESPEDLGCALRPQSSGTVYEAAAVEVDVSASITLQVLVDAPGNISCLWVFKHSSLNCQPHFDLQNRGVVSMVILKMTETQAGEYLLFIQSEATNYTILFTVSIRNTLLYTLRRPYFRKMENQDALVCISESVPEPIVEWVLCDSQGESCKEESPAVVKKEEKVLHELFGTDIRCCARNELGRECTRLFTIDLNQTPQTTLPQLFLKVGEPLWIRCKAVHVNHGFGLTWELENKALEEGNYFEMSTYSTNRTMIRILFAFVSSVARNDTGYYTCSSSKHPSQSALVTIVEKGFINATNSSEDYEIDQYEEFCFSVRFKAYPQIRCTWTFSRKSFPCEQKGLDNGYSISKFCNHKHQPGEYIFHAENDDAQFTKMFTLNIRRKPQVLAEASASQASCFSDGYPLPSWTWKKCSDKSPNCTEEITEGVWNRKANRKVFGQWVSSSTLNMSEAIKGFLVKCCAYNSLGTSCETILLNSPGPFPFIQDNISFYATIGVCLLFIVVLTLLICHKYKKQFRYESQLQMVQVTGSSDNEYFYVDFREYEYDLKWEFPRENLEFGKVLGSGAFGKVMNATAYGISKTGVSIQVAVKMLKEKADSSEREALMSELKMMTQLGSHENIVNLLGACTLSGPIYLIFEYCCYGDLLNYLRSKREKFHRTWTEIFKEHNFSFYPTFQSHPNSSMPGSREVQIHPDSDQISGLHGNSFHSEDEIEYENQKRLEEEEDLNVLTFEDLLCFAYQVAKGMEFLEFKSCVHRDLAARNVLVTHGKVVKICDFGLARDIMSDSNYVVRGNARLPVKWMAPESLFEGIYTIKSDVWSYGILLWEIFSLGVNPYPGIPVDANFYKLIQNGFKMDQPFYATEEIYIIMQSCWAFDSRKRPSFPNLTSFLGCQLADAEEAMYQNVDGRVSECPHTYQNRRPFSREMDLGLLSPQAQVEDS

[4] = molecular target: T2, IRAK4 (Homo sapiens, UniProt Q9NWZ3)
T2 sequence (Q9NWZ3 1-460): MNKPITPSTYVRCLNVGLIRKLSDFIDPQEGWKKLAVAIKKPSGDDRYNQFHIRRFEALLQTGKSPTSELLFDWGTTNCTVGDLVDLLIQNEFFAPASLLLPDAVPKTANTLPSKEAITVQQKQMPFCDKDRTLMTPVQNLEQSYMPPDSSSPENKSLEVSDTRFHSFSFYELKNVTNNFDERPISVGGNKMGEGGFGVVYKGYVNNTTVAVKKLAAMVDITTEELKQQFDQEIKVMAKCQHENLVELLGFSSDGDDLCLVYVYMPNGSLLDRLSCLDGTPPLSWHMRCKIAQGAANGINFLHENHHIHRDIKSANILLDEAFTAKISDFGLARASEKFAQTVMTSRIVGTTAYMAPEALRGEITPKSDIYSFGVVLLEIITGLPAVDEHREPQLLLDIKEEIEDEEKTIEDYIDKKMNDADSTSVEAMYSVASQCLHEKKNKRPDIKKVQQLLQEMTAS

[5] = molecular target: T3, JNK2 (Homo sapiens, UniProt P45984)
T3 construct: gene MAPK9

[6] = molecular target: Met (Homo sapiens, UniProt P08581)
[7] = molecular target: T4, PKA (Homo sapiens, UniProt P17612)
T4 construct: gene PRKACA

[8] = molecular target: RAF1(Y340D,Y341D) (Homo sapiens, UniProt P04049, Y340D/Y341D)
[9] = molecular target: Src (Homo sapiens, UniProt P12931)
[10] = molecular target: T5, Tie2 (Homo sapiens, UniProt Q02763)
T5 construct: gene TEK

Sequence of RAF1(Y340D,Y341D) (P04049 whole entry Y340D/Y341D): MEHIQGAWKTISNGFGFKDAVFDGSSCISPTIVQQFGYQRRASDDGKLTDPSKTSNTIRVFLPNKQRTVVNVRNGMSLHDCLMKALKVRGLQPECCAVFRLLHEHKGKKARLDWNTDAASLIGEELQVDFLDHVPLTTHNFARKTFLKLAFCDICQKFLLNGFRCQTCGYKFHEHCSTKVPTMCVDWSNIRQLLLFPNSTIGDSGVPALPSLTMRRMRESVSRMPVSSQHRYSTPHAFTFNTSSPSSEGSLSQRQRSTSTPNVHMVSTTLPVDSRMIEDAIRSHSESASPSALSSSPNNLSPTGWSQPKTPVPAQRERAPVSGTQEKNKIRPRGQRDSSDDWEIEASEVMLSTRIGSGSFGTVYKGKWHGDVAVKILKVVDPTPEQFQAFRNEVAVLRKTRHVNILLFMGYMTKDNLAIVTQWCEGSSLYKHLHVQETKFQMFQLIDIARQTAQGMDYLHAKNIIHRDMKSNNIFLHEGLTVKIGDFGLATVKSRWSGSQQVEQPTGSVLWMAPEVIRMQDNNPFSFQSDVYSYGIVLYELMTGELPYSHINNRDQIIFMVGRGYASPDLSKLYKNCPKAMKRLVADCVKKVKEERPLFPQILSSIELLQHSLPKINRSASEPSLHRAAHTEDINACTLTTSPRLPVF
Sequence of Src (P12931 whole entry): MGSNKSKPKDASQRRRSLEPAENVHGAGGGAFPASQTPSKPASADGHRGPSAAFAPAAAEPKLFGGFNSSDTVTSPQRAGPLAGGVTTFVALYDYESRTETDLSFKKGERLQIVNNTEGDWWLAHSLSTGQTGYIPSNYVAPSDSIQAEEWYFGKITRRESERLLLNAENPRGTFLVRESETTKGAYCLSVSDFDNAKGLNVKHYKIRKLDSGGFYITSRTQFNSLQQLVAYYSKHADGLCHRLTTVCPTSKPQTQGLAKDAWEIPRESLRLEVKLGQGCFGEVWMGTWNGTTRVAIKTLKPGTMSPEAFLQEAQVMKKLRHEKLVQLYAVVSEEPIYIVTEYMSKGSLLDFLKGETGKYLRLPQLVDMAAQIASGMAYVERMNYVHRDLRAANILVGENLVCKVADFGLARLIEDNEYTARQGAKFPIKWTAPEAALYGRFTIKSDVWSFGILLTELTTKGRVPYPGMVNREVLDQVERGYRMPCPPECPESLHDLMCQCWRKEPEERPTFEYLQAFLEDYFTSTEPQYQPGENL
Sequence of Met (P08581 whole entry): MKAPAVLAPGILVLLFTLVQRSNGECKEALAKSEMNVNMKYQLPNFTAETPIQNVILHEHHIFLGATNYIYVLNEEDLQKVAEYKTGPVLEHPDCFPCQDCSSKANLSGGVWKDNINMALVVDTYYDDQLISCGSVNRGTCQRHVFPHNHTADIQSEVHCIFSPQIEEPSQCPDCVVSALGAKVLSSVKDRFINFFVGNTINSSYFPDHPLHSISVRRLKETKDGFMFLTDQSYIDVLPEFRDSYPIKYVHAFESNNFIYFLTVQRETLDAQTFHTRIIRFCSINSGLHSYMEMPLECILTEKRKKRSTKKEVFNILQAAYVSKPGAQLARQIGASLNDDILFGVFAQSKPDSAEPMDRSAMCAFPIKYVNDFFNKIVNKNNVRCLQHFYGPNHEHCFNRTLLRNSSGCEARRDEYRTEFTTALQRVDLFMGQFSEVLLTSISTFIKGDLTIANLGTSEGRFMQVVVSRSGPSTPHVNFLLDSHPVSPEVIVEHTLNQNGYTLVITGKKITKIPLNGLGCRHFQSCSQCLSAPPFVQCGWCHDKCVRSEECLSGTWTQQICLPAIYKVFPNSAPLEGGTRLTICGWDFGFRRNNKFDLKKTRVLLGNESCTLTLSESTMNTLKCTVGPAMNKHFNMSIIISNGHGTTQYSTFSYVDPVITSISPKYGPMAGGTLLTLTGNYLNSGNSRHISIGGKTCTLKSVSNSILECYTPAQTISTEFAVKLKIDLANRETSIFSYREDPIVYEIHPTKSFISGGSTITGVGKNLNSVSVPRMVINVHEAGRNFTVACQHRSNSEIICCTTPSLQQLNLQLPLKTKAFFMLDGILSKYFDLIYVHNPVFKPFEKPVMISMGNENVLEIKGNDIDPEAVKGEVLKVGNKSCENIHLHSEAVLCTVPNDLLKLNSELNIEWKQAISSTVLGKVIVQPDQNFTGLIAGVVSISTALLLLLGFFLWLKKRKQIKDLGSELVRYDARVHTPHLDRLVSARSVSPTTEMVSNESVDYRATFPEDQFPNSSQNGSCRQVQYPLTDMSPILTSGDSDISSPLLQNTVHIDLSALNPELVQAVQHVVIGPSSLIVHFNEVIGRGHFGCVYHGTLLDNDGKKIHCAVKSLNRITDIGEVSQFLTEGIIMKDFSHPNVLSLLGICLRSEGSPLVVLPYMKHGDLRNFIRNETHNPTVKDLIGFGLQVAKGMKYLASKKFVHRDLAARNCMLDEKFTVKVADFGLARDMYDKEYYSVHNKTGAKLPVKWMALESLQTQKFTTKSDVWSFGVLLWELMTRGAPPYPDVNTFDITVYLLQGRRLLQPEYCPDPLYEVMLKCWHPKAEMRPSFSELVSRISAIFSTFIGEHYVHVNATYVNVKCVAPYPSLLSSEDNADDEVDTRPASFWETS
Sequence of EphA7 (Q15375 whole entry): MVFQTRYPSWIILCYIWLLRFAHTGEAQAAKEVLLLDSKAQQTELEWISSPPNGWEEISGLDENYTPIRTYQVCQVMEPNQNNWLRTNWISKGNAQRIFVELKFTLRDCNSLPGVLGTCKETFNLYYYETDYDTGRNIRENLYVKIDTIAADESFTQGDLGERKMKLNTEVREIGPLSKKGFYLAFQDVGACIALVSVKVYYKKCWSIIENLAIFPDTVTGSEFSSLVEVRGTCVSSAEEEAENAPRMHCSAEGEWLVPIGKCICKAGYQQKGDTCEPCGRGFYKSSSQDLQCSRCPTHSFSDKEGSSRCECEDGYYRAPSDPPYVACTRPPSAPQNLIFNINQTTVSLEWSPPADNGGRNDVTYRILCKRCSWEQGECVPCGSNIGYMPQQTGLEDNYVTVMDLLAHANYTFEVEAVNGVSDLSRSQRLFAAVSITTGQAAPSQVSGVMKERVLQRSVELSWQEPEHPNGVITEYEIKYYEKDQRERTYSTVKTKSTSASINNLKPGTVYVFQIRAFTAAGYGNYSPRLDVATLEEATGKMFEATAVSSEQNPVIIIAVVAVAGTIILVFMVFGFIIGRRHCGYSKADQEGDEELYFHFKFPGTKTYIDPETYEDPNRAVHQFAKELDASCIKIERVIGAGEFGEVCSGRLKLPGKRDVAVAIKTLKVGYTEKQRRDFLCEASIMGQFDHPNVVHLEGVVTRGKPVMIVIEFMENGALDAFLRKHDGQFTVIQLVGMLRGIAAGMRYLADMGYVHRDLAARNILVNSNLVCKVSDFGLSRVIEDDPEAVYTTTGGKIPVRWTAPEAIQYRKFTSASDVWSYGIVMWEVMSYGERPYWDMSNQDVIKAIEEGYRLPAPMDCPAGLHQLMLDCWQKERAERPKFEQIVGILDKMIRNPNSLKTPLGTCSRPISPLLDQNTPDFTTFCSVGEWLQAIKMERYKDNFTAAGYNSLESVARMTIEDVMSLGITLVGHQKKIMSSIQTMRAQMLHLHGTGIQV
T3 sequence (P45984 whole entry): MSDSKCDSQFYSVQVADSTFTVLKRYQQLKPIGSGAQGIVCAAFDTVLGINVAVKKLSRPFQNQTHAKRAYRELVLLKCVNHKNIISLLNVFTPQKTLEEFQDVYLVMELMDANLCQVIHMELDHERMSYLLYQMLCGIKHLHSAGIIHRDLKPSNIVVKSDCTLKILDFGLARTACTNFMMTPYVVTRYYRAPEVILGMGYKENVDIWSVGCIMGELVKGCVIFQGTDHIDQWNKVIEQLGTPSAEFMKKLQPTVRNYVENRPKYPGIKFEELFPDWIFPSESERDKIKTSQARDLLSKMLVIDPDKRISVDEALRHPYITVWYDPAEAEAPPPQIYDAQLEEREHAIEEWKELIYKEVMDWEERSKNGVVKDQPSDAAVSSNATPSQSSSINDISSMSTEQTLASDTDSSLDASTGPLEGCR
Sequence of BTK (Q06187 whole entry): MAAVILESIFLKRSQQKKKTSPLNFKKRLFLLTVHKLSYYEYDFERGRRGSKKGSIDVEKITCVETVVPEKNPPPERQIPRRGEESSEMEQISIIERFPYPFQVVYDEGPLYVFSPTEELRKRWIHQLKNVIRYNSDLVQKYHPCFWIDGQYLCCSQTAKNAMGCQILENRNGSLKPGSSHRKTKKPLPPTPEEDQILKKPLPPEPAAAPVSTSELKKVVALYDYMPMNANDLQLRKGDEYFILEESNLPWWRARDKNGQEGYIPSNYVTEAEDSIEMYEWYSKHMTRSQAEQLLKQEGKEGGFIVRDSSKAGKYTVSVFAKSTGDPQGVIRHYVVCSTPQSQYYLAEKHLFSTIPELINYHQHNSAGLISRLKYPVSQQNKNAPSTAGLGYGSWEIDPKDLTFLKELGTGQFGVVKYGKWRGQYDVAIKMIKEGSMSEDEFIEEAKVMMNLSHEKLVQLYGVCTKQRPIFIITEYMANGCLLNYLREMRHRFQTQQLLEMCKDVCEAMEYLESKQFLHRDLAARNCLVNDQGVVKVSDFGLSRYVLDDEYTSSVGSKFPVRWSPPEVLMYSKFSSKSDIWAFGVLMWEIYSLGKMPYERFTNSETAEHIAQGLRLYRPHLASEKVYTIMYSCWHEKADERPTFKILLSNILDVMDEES

SMILES	inhibition at 1 µM [1]	inhibition at 1 µM [2]	inhibition at 1 µM [3]	inhibition at 1 µM [4]	inhibition at 1 µM [5]	inhibition at 1 µM [6]	inhibition at 1 µM [7]	inhibition at 1 µM [8]	inhibition at 1 µM [9]	inhibition at 1 µM [10]
CCOC(=O)Nc1cccc2c(Oc3ncccc3-c3ccnc(N[C@H]4CCCNC4)n3)c(C)ccc12 [G-1749]	1.5%	9.5%	8%	8%	79%	4%	-9%	24.5%	28%	26%
CC#CC(=O)Nc1cccc2c(Oc3ncccc3-c3ccnc(N[C@H]4CCCNC4)n3)c(C)ccc12 [G-7658]	5.5%	-1%	16.5%	-1%	72%	5%	-8%	1%	22.5%	12.5%
O=c1cc(-c2n[nH]c3ncc(-c4c(F)cccc4F)cc23)nc(N2CCC(O)CC2)[nH]1 [G-9807]	35.9%	84.2%	98.2%	96.3%	91.3%	88.8%	43%	43.3%	52.5%	95.9%
